Earlier results as cited in paper PMC4324444 (ACS Chemical Biology, 2014).

Target: XIAP
Settings: read-out: binding affinity to XIAP (Ki)

## CN[C@@H](C)C(=O)N[C@H](C(=O)N1CC[C@H](C)[C@H]1C(=O)Nc1ccccc1-c1ncccn1)C1CCCCC1 [CS3]
  Ki: > 30 µM
